Reference: patent publication US10792272B2, “Methods for treatment of Clostridium difficile infections” (priority 2016, dated 2020)
Values after ≈ are worked out from the molar mass of the structure shown.

Legend:
[1] = test system: C. difficile 4118 (CD4118, ATCC BAA-1870, BI/NAP1/027); experiment: MIC by broth microdilution against C. difficile 4118; format: cell-based, Clostridium difficile; conditions: Table 1, strain 4118, 20-24 h, 37° C.; for MIC: Clostridioides difficile, ATCCBAA1870, read-out: MIC C. difficile 4118
[2] = test system: C. difficile strains 630 (CD630) and 4118 (CD4118); experiment: MIC / growth inhibition against C. difficile, covering both strains; format: cell-based, Clostridium difficile
[3] = test system: C. difficile 630 (CD630, ATCC BAA-1382); experiment: MIC by broth microdilution against C. difficile 630; format: cell-based, Clostridium difficile; conditions: Table 1, strain 630, 20-24 h, 37° C.; for MIC: Clostridioides difficile, ATCCBAA1382
[4] = test system: P. aeruginosa PAO1; experiment: MIC against aerobic bacteria; format: cell-based, Pseudomonas aeruginosa; conditions: aerobic
[5] = test system: C. sporogenes ATCC 15579; experiment: microbe, parasite or virus in culture; format: cell-based, Clostridium sporogenes; conditions: for MIC: Clostridium sporogenes, ATCC15579, read-out: MIC C. sporogenes ATCC 15579
[6] = test system: B. thetaiotaomicron ATCC 29148; experiment: microbe, parasite or virus in culture; format: cell-based; conditions: for MIC B. thetaiotaomicron ATCC 29148: anaerobic
[7] = test system: panel of aerobic and anaerobic organisms; format: cell-based
[8] = test system: P. distasonis ATCC 8503; experiment: MIC against anaerobic bacteria; format: cell-based, Parabacteroides distasonis; conditions: anaerobic
[9] = test system: P. nigrescens ATCC 33563; experiment: MIC against anaerobic bacteria; format: cell-based, Prevotella nigrescens; conditions: anaerobic
[10] = test system: A. baumannii M2; experiment: MIC against aerobic bacteria; format: cell-based; conditions: aerobic
[11] = test system: S. aureus RN4220; experiment: MIC against aerobic bacteria; format: cell-based; conditions: aerobic; for MIC: Staphylococcus aureus, RN4220, read-out: MIC S. aureus RN4220
[12] = test system: C. clostridioforme ATCC 25537; experiment: MIC against anaerobic bacteria; format: cell-based, Clostridium clostridioforme; conditions: anaerobic
[13] = test system: S. epidermidis 1457; experiment: MIC against aerobic bacteria; format: cell-based; conditions: aerobic
[14] = test system: B. subtilis ATCC 6051; experiment: MIC against aerobic bacteria; format: cell-based, Bacillus subtilis; conditions: aerobic
[15] = test system: Clostridium difficile strain 4118; experiment: Minimum bactericidal concentration (MBC), logarithmic- and stationary-phase cells; format: cell-based; conditions: stationary-phase cells of strain 4118; 3-log reduction of inoculum
Method: The MBClog values of the protonophores were determined to be 0.25-2 μg/mL (˜4 to 8-fold greater than their respective MIC values).
Clostridium difficile strain 4118 was grown to OD600˜0.4-0.5 (logarithmic phase) or for 24 h (stationary phase), and thereafter added to two-fold serial dilutions of test compounds. Cultures were incubated for 20-24 h at 37° C., and then viable counts were enumerated on BHIS agar plates. […] MBC measurements were performed in duplicate.

O=C(Nc1ccc(Oc2ccccc2)cc1)c1cc(I)cc(I)c1O [Compound 5a]
MIC C. difficile 4118 [1]: 1 µg/mL (≈ 1.79 µM)
growth inhibitory activity against CD630 and CD4118 (in words) [2]: high in vitro potency
MIC C. difficile 630 [3]: 0.5 µg/mL (≈ 0.897 µM)

COc1c(I)cc(I)cc1C(=O)Nc1ccc(Oc2ccccc2)cc1 [Compound 5b]
MIC C. difficile 4118 [1]: >32 µg/mL
growth inhibitory activity against CD630 and CD4118 (in words) [2]: inactive
MIC C. difficile 630 [3]: >32 µg/mL

O=C(Nc1ccc(Oc2ccccc2)cc1)c1cc(I)cc(I)c1 [Compound 5c]
MIC C. difficile 4118 [1]: >32 µg/mL
growth inhibitory activity against CD630 and CD4118 (in words) [2]: inactive
MIC C. difficile 630 [3]: >32 µg/mL

CN(C(=O)c1cc(I)cc(I)c1O)c1ccc(Oc2ccccc2)cc1 [Compound 5d]
MIC C. difficile 4118 [1]: >32 µg/mL
growth inhibitory activity against CD630 and CD4118 (in words) [2]: inactive
MIC C. difficile 630 [3]: >32 µg/mL

O=C(Nc1ccc(Oc2ccc(F)cc2)cc1)c1cc(I)cc(I)c1O [Compound 5e]
MIC C. difficile 4118 [1]: 0.13 µg/mL (≈ 0.226 µM)
growth inhibitory activity against CD630 and CD4118 (in words) [2]: high in vitro potency
MIC C. difficile 630 [3]: 0.13 µg/mL (≈ 0.226 µM)

Cc1ccc(Oc2ccc(NC(=O)c3cc(I)cc(I)c3O)cc2)cc1 [Compound 5f]
MIC C. difficile 4118 [1]: 0.25 µg/mL (≈ 0.438 µM)
growth inhibitory activity against CD630 and CD4118 (in words) [2]: high in vitro potency
MIC C. difficile 630 [3]: 0.13 µg/mL (≈ 0.228 µM)

O=C(Nc1ccc(Oc2ccc(Cl)cc2)cc1)c1cc(I)cc(I)c1O [Compound 5g]
MIC C. difficile 4118 [1]: 0.25 µg/mL (≈ 0.423 µM)
growth inhibitory activity against CD630 and CD4118 (in words) [2]: high in vitro potency
MIC C. difficile 630 [3]: 0.13 µg/mL (≈ 0.22 µM)

COc1c(I)cc(I)cc1C(=O)Nc1ccc(Oc2ccc(Cl)cc2)cc1 [Compound 5h]
MIC C. difficile 4118 [1]: >32 µg/mL
growth inhibitory activity against CD630 and CD4118 (in words) [2]: inactive
MIC C. difficile 630 [3]: >32 µg/mL

O=C(Nc1ccc(Oc2ccc(Cl)cc2)cc1)c1cc(I)cc(I)c1 [Compound 5i]
MIC P. aeruginosa PAO1 [4]: >32 µg/mL
MIC C. sporogenes ATCC 15579 [5]: >32 µg/mL
MIC B. thetaiotaomicron ATCC 29148 [6]: >32 µg/mL
antibacterial spectrum (in words) [7]: lacked antibacterial activity
MIC P. distasonis ATCC 8503 [8]: >32 µg/mL
MIC P. nigrescens ATCC 33563 [9]: >32 µg/mL
MIC C. difficile 4118 [1]: >32 µg/mL
MIC A. baumannii M2 [10]: >32 µg/mL
growth inhibitory activity against CD630 and CD4118 (in words) [2]: inactive
MIC S. aureus RN4220 [11]: >32 µg/mL
MIC C. clostridioforme ATCC 25537 [12]: >32 µg/mL
MIC S. epidermidis 1457 [13]: >32 µg/mL
MIC B. subtilis ATCC 6051 [14]: >32 µg/mL
MIC C. difficile 630 [3]: >32 µg/mL

O=C(Nc1ccc2ccccc2c1)c1cc(I)cc(I)c1O [Compound 6a]
MIC P. aeruginosa PAO1 [4]: >32 µg/mL
MIC C. sporogenes ATCC 15579 [5]: 8 µg/mL (≈ 15.5 µM)
MIC B. thetaiotaomicron ATCC 29148 [6]: >32 µg/mL
MIC P. distasonis ATCC 8503 [8]: 16 µg/mL (≈ 31.1 µM)
MIC P. nigrescens ATCC 33563 [9]: 8 µg/mL (≈ 15.5 µM)
MIC C. difficile 4118 [1]: 0.5 µg/mL (≈ 0.971 µM)
MIC A. baumannii M2 [10]: >32 µg/mL
growth inhibitory activity against CD630 and CD4118 (in words) [2]: high in vitro potency
MIC S. aureus RN4220 [11]: 0.25 µg/mL (≈ 0.485 µM)
MIC C. clostridioforme ATCC 25537 [12]: 4 µg/mL (≈ 7.77 µM)
MIC S. epidermidis 1457 [13]: 0.06 µg/mL (≈ 0.116 µM)
MIC B. subtilis ATCC 6051 [14]: 0.06 µg/mL (≈ 0.116 µM)
MIC C. difficile 630 [3]: 0.5 µg/mL (≈ 0.971 µM)

COc1c(I)cc(I)cc1C(=O)Nc1ccc2ccccc2c1 [Compound 6b]
MIC C. difficile 4118 [1]: >32 µg/mL
growth inhibitory activity against CD630 and CD4118 (in words) [2]: inactive
MIC C. difficile 630 [3]: >32 µg/mL

O=C(Nc1ccc2ccccc2c1)c1cc(I)cc(I)c1 [Compound 6c]
MIC C. difficile 4118 [1]: >32 µg/mL
growth inhibitory activity against CD630 and CD4118 (in words) [2]: inactive
MIC C. difficile 630 [3]: >32 µg/mL

O=C(Nc1ccc(-c2ccccc2)cc1)c1cc(I)cc(I)c1O [Compound 7a]
MIC C. difficile 4118 [1]: 1 µg/mL (≈ 1.85 µM)
MIC C. difficile 630 [3]: 0.5 µg/mL (≈ 0.924 µM)

O=C(Nc1ccc(Cl)cc1)c1cc(I)cc(I)c1O [Compound 7b]
MIC P. aeruginosa PAO1 [4]: >32 µg/mL
MIC C. sporogenes ATCC 15579 [5]: 16 µg/mL (≈ 32 µM)
MIC B. thetaiotaomicron ATCC 29148 [6]: >32 µg/mL
MIC P. distasonis ATCC 8503 [8]: 8 µg/mL (≈ 16 µM)
MIC P. nigrescens ATCC 33563 [9]: 4 µg/mL (≈ 8.01 µM)
MIC C. difficile 4118 [1]: 0.5 µg/mL (≈ 1 µM)
MIC A. baumannii M2 [10]: 32 µg/mL (≈ 64.1 µM)
MIC S. aureus RN4220 [11]: 0.06 µg/mL (≈ 0.12 µM)
MIC C. clostridioforme ATCC 25537 [12]: 16 µg/mL (≈ 32 µM)
MIC S. epidermidis 1457 [13]: ≤0.03 µg/mL
MIC B. subtilis ATCC 6051 [14]: 0.06 µg/mL (≈ 0.12 µM)
MIC C. difficile 630 [3]: 0.25 µg/mL (≈ 0.501 µM)

O=C(Nc1ccccc1Cl)c1cc(I)cc(I)c1O [Compound 7c]
MIC C. difficile 4118 [1]: 8 µg/mL (≈ 16 µM)
MIC against C. difficile ([2]; one statement covering CD630 and CD4118): 8 µg/mL (≈ 16 µM)
MIC C. difficile 630 [3]: 8 µg/mL (≈ 16 µM)

O=C(Nc1ccc(I)cc1)c1cc(I)cc(I)c1O [Compound 7d]
MIC C. difficile 4118 [1]: 0.25 µg/mL (≈ 0.423 µM)
MIC C. difficile 630 [3]: 0.13 µg/mL (≈ 0.22 µM)

O=C(Nc1ccc(Oc2ccc(Cl)cc2)cc1)c1cc(Cl)cc(Cl)c1O [Compound 8, 3,5-Dichloro-N-(4-(4-chlorophenoxy)phenyl)-2-hydroxybenzamide]
MIC [5]: 4 µg/mL (≈ 9.79 µM)
MIC [1]: 0.06 µg/mL (≈ 0.147 µM)
MIC ([2]; Clostridioides difficile, one statement covering CD630 and CD4118, read-out: MIC against C. difficile): ≤ 0.13 µg/mL
enhancement of potency relative to 5g and metronidazole ([2]; MIC ratio, Table 1): 4 fold
improvement of activity over vancomycin ([2]; MIC ratio, Table 1): ~32 fold
MIC [11]: 0.13 µg/mL (≈ 0.318 µM)
MIC [3]: ≤ 0.03 µg/mL

Cc1ncc([N+](=O)[O-])n1CCO [Metronidazole, metronidazole, reference compound]
MBCstat [15]: >32 µg/mL
MIC [5]: 0.25 µg/mL (≈ 1.46 µM)
MIC ([6]; Bacteroides thetaiotaomicron, ATCC29148, read-out: MIC B. thetaiotaomicron ATCC 29148): 1 µg/mL (≈ 5.84 µM)
antibacterial spectrum (in words) [7]: mainly targeted anaerobic bacteria
MIC [1]: 0.25 µg/mL (≈ 1.46 µM)
MIC [11]: > 32 µg/mL
MIC [3]: 0.25 µg/mL (≈ 1.46 µM)
